Like-named read-outs stand apart in the source and are kept apart here.

This note sets out measurements from patent US9707234B2, “Spirocyclic hetercycle compounds useful as HIV integrase inhibitors” (MERCK SHARP & DOHME CORP., priority 2013, dated 2017).

The assay has as its system HIV-1 (H9IIIB or NL4-3 virus) replication in MT4-GFP cells. Briefly: microbe, parasite or virus in culture. Format: cell-based. Conditions: inhibition of reproductive ratio R0, 48-72 h post-infection.
The mark [1] stands for this setting: MT4-GFP cells infected with HIV-1, 100% normal human serum, read-out: ViKinG IP (nM) with 100% NHS.
Where [2] appears, read: MT4-GFP cells infected with HIV-1, serum free conditions (0% NHS), read-out: ViKinG IP (nM) with 0% NHS.
Setting [3] is: Human immunodeficiency virus 1, NL43, MT4-GFP cells infected with HIV-1, 100% normal human serum, read-out: ViKinG IP (nM) with 100% NHS.
Where [4] appears, read: Human immunodeficiency virus 1, NL43, MT4-GFP cells infected with HIV-1, serum free conditions (0% NHS), read-out: ViKinG IP (nM) with 0% NHS.
Where [5] appears, read: Human immunodeficiency virus 1, NL43, MT4-GFP cells infected with HIV-1, 10% normal human serum, read-out: ViKinG IP (nM) with 10% NHS.

Turning to `CCOC(=O)N1CCC2(C1)N(CC)C(=O)c1c(O)c(=O)c(C(=O)NCc3ccc(F)cc3F)cn1N2C` (single isomer, unassigned) [Compound 140], the IC50 is, setting by setting: under setting [1], 48 nM; under setting [2], 1.7 nM.

In the case of `CCOC(=O)N1CCC2(CC1)N(CC)C(=O)c1c(O)c(=O)c(-c3cnn(Cc4ccc(F)cc4F)c3)c(CO)n1N2C` [Compound 92], the IC50 runs as follows: under setting [3], 3650 nM; under setting [4], 159 nM.

As for `CN1C(=O)c2c(O)c(=O)c(C(=O)NCc3cccc(Cl)c3F)cn2N(C)C12COCC2(C)C` (single isomer, unassigned) [Compound 128], the IC50 runs as follows: under setting [1], 131 nM; under setting [2], 0.7 nM.

Consider `CCOCCN1C(=O)c2c(O)c(=O)c(C(=O)NCc3ccc(F)cc3F)cn2N(C)C12CCOC2` (single isomer, unassigned) [Compound 125], for which the IC50 runs as follows: under setting [3], 257 nM; under setting [4], 0.8 nM.

`CC1OCCC12N(C)C(=O)c1c(O)c(=O)c(C(=O)NCc3cccc(Cl)c3F)cn1N2C` (single isomer, unassigned) [Compound 138]: the IC50 amounted to 134 nM under setting [1] and 0.6 nM under setting [2].

In the case of `CN1C(=O)c2c(O)c(=O)c(C(=O)NCc3ccc(F)cc3F)cn2CC12CCOCC2` [Compound 39], the IC50 was 49 nM under setting [3] and 4.2 nM under setting [4].

For the compound `CC(=O)N1CCC2(CC1)N(C)C(=O)c1c(O)c(=O)c(-c3nnc(Cc4ccc(F)cc4F)s3)cn1N2C` [Compound 23], the IC50 under setting [5] is 100 nM.

On to `CCOP(=O)(CCCN1n2cc(C(=O)NCc3ccc(F)cc3F)c(=O)c(O)c2C(=O)N(C)C12CCOC2)OCC` (racemic) [Compound 161], for which the IC50 under setting [3] was determined as 227 nM.

Take `CN1C(=O)c2c(O)c(=O)c(C(=O)NCc3ccc(F)cc3F)cn2N(CCCC(F)(F)F)C12CCOC2` (single isomer, unassigned) [Compound 165]: the IC50 under setting [1] came to 146 nM.

As to `CN1C(=O)c2c(O)c(=O)c(-c3nnc(Cc4ccc(F)cc4F)s3)cn2N(C)C12CCN(C(N)=O)CC2` [Compound 29], the IC50 reads like this: under setting [3], 2080 nM; under setting [4], 89.1 nM.

Regarding `CCN1C(=O)c2c(O)c(=O)c(-c3nnc(Cc4ccc(F)cc4F)s3)cn2N(C)C12CCS(=O)(=O)CC2` [Compound 16], the IC50 was 47 nM under setting [5] and 17.3 nM under setting [4].

On to `COCc1c(C(=O)NCc2ccc(F)cc2F)c(=O)c(O)c2n1CC1(CCOC1)N(C)C2=O` (stereo not drawn) [Compound 48], for which the IC50 is, setting by setting: under setting [3], 194 nM; under setting [4], 124 nM.

On to `CN1C(=O)c2c(O)c(=O)c(C(=O)NCc3ccc(F)cc3F)cn2N(C)C12COC2` [Compound 143], for which the IC50 turned out to be 7 nM under setting [5], 78 nM under setting [3] and 1.4 nM under setting [4].

On to `CCN1C(=O)c2c(O)c(=O)c(-c3nnc(Cc4ccc(F)cc4F)s3)cn2N(C)C12CCN(S(=O)(=O)N(C)C)CC2` [Compound 13], for which the IC50 under setting [5] came out at 14 nM, the IC50 under setting [3] amounted to 106 nM and the IC50 under setting [4] is 8.6 nM.

`CCOC(=O)N1CCC2(CC1)N(C)C(=O)c1c(O)c(=O)c(-c3nnc(Cc4ccc(F)cc4F)s3)cn1N2C` [Compound 19]: the IC50 reads like this: under setting [5], 9 nM; under setting [3], 133 nM.

Regarding `CCN1C(=O)c2c(O)c(=O)c(-c3nnc(Cc4ccc(F)cc4F)s3)cn2N(C)C12CCSCC2` [Compound 15], the IC50 under setting [5] turned out to be 178 nM, the IC50 under setting [3] came out at 3140 nM and the IC50 under setting [4] came to 8 nM.

For `CCOC(=O)N1CCC2(CC1)N(C)C(=O)c1c(O)c(=O)c(-c3nnc(Cc4ccc(F)cc4)s3)cn1N2C` [Compound 18], the IC50 amounted to 13 nM under setting [5] and 254 nM under setting [3].

As to `COCN1C(=O)c2c(O)c(=O)c(C(=O)NCc3ccc(F)cc3F)cn2CC12CCOC2` (single isomer, unassigned) [Compound 76], the IC50 under setting [1] is 151 nM and the IC50 under setting [2] turned out to be 2.4 nM.

With `CCN1C(=O)c2c(O)c(=O)c(C(=O)NCc3ccc(F)cc3F)cn2N(C)C12COC2` [Compound 144], the IC50 is 60 nM under setting [5], 591 nM under setting [3] and 1.5 nM under setting [4].

On to `CN1C(=O)c2c(O)c(=O)c(C(=O)NCc3ccc(F)c(Cl)c3)cn2CC12CCOC2` (single isomer, unassigned) [Compound 62], for which the IC50 came to 72 nM under setting [1] and 3.1 nM under setting [2].

As to `CCN1n2cc(C(=O)NCc3ccc(F)cc3F)c(=O)c(O)c2C(=O)N(C)C12CCOC2` (single isomer, unassigned) [Compound 150], the IC50 was found to be 71 nM under setting [1] and 0.6 nM under setting [2].

As to `COCCN1C(=O)c2c(O)c(=O)c(C(=O)NCc3ccc(F)cc3F)cn2CC12CCNCC2` [Compound 87], the IC50 by setting is: under setting [3], 98 nM; under setting [4], 16 nM.

With `CN1C(=O)c2c(O)c(=O)c(C(=O)NCc3ccc(F)cc3F)cn2N(CC2CC2)C12CCOC2` (single isomer, unassigned) [Compound 152], the IC50 by setting is: under setting [1], 174 nM; under setting [2], 0.7 nM.

With `CCOP(=O)(CCN1n2cc(C(=O)NCc3ccc(F)cc3F)c(=O)c(O)c2C(=O)N(C)C12CCOC2)OCC` (single isomer, unassigned) [Compound 160], under setting [1], the IC50 amounted to 46 nM.

Take `CN1C(=O)c2c(O)c(=O)c(C(=O)NCc3c(F)cc(F)cc3F)cn2N(C)C12CCOC2` (single isomer, unassigned) [Compound 105]: the IC50 is, setting by setting: under setting [3], 37 nM; under setting [4], 0.8 nM.

As for `CN1C(=O)c2c(O)c(=O)c(C(=O)NCc3ccc(F)cc3F)cn2N(C)C12COCC2(C)C` (single isomer, unassigned) [Compound 130], the IC50 is 257 nM under setting [1] and 2.3 nM under setting [2].

On to `CC1OCCC12N(C)C(=O)c1c(O)c(=O)c(C(=O)NCc3cccc(Cl)c3F)cn1N2C` (single isomer, unassigned) [Compound 136], for which, under setting [1], the IC50 came to 83 nM.

Regarding `COCCCN1C(=O)c2c(O)c(=O)c(C(=O)NCc3ccc(F)cc3F)cn2CC12CCNCC2` [Compound 89], the IC50 by setting is: under setting [3], 87 nM; under setting [4], 16.1 nM.

For `CN1C(=O)c2c(O)c(=O)c(C(=O)NCc3cccc(Cl)c3F)cn2N(C)C12CCOC2` (single isomer, unassigned) [Compound 110], under setting [1], the IC50 was 121 nM.

As to `CC1OCCC12N(C)C(=O)c1c(O)c(=O)c(C(=O)NCc3ccc(F)cc3F)cn1N2C` (single isomer, unassigned) [Compound 131], the IC50 by setting is: under setting [4], 0.8 nM; under setting [1], 114 nM.

In the case of `COCCN1C(=O)c2c(O)c(=O)c(C(=O)NCc3ccc(F)c(Cl)c3F)cn2CC12CCOC2` (single isomer, unassigned) [Compound 54], the IC50 reads like this: under setting [3], 989 nM; under setting [4], 2.3 nM.

On to `CN1C(=O)c2c(O)c(=O)c(C(=O)NCc3c(F)cc(F)cc3F)cn2N(C)C12CCOC2` (single isomer, unassigned) [Compound 106], for which the IC50 reads like this: under setting [1], 27 nM; under setting [2], 0.6 nM.

In the case of `CCOC(=O)N1CCC2(C1)N(CC)C(=O)c1c(O)c(=O)c(C(=O)NCc3ccc(F)cc3F)cn1N2C` (single isomer, unassigned) [Compound 139], the IC50 by setting is: under setting [4], 1.5 nM; under setting [1], 247 nM.

For the compound `CC(c1nnc(-c2cn3c(c(O)c2=O)C(=O)N(C)C2(CCOC2)C3)s1)c1ccc(F)cc1F` (stereo not drawn) [Compound 102], the IC50 turned out to be 85 nM under setting [3] and 6.8 nM under setting [4].

Turning to `CCOCCN1C(=O)c2c(O)c(=O)c(C(=O)NCc3cccc(Cl)c3F)cn2CC12CCOC2` (single isomer, unassigned) [Compound 79], the IC50 reads like this: under setting [4], 2.3 nM; under setting [1], 603 nM.

With `CCCCCN1C(=O)c2c(O)c(=O)c(C(=O)NCc3ccc(F)cc3F)cn2CC12CCOCC2` [Compound 45], the IC50 was 236 nM under setting [3] and 6.4 nM under setting [4].

As for `CN1C(=O)c2c(O)c(=O)c(-c3nnc(Cc4ccc(F)cc4F)s3)cn2N(C)C12CCS(=O)(=O)CC2` [Compound 27], the IC50 worked out at 72 nM under setting [5], 712 nM under setting [3] and 21.2 nM under setting [4].

As to `CN1C(=O)c2c(O)c(=O)c(C(=O)NCc3ccc(F)cc3F)cn2N(Cc2ccccc2)C12CCOC2` (single isomer, unassigned) [Compound 162], the IC50 under setting [1] came to 72 nM.

On to `CN1C(=O)c2c(O)c(=O)c(C(=O)NCc3cccc(Cl)c3F)cn2CC12CCOC2` (single isomer, unassigned) [Compound 65], for which the IC50 came to 60 nM under setting [3] and 1.5 nM under setting [4].

On to `CN1C(=O)c2c(O)c(=O)c(C(=O)NCc3ccc(F)cc3F)cn2N(Cc2ccccc2)C12CCOC2` (single isomer, unassigned) [Compound 163], for which the IC50 under setting [1] amounted to 35 nM.

`CCOC(=O)N1CCC2(CC1)Cn1cc(-c3nnc(Cc4ccc(F)cc4F)s3)c(=O)c(O)c1C(=O)N2CC` [Compound 95]: the IC50 runs as follows: under setting [3], 104 nM; under setting [4], 11.6 nM.

On to `O=C(NCc1ccc(F)cc1F)c1cn2c(c(O)c1=O)C(=O)N(CCCCC(F)(F)F)C1(CCOCC1)C2` [Compound 47], for which the IC50 runs as follows: under setting [3], 71 nM; under setting [4], 6.6 nM.

On to `CCOCCN1C(=O)c2c(O)c(=O)c(C(=O)NCc3ccc(F)cc3F)cn2CC12CCOC2` (single isomer, unassigned) [Compound 78], for which the IC50 amounted to 55 nM under setting [1] and 2.3 nM under setting [2].

In the case of `CN1C(=O)c2c(O)c(=O)c(C(=O)NCc3ccc(F)cc3)cn2N(C)C12CCOC2` (single isomer, unassigned) [Compound 114], the IC50 reads like this: under setting [1], 87 nM; under setting [2], 0.8 nM.

With `COCCN1n2cc(C(=O)NCc3ccc(F)cc3F)c(=O)c(O)c2C(=O)N(C)C12CCOC2` (single isomer, unassigned) [Compound 156], the IC50 under setting [1] amounted to 106 nM and the IC50 under setting [2] is 1.2 nM.
